Reference: patent publication US12077503B2, “Substituted cyclic amides and their use as herbicides” (FMC CORPORATION, priority 2015, dated 2024)

Experiments:
Assay in all cases: Test C preemergence
Type in all cases: in vivo
Conditions in all cases: scale 0 to 100, 0 no effect, 100 complete control
[1] = test system: barnyardgrass (Echinochloa crus-galli)
Summary of the method: (§1)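 Seeds in loam-sand soil treated preemergence, or plants in peat-based medium sprayed postemergence at 2–18 cm (1- to 4-leaf stage), with compound in a non-phytotoxic solvent mixture containing surfactant. Greenhouse-held 13–15 d, then visually rated against controls on a 0–100 scale (0 = no effect, 100 = complete control); dash = not tested.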

[2] = test system: johnsongrass (Sorghum halepense)
Summary of the method: as §1

[3] = test system: crabgrass, large (large crabgrass, Digitaria sanguinalis)
Summary of the method: as §1

[4] = test system: foxtail, giant (giant foxtail, Setaria faberii)
Summary of the method: as §1

[5] = test system: morningglory (Ipomoea coccinea)
Summary of the method: as §1

[6] = test system: nutsedge, yellow (yellow nutsedge, Cyperus esculentus)
Summary of the method: as §1

[7] = test system: oilseed rape (Brassica napus)
Summary of the method: as §1

[8] = test system: soybean (Glycine max)
Summary of the method: as §1

[9] = test system: velvetleaf (Abutilon theophrasti)
Summary of the method: as §1

[10] = test system: lambsquarters (Chenopodium album)
Summary of the method: as §1

[11] = test system: ryegrass, Italian (Italian ryegrass, Lolium multiflorum)
Summary of the method: as §1

[12] = test system: waterhemp (common waterhemp, Amaranthus rudis)
Summary of the method: as §1

[13] = test system: corn (Zea mays)
Summary of the method: as §1

[14] = test system: wheat (winter wheat, Triticum aestivum)
Summary of the method: as §1

[15] = test system: blackgrass (Alopecurus myosuroides)
Summary of the method: as §1

[16] = test system: ragweed (common ragweed, Ambrosia elatior)
Summary of the method: as §1

## CN1CC(c2cccc(OC(F)(F)C(F)F)c2)C(C(=O)Nc2ccc(F)cc2F)C1=O (centres unmarked) [Compound 393]
[1]; 31 g ai/ha
  Plant response rating, Barnyardgrass: 90
[1]; 62 g ai/ha
  Plant response rating, Barnyardgrass: 90
[1]; 125 g ai/ha
  Plant response rating, Barnyardgrass: 95
[1]; 250 g ai/ha
  Plant response rating, Barnyardgrass: 95
[2]; 31 g ai/ha
  Plant response rating, Johnsongrass: 70
[2]; 62 g ai/ha
  Plant response rating, Johnsongrass: 80
[2]; 125 g ai/ha
  Plant response rating, Johnsongrass: 85
[2]; 250 g ai/ha
  Plant response rating, Johnsongrass: 85
[3]; 31 g ai/ha
  Plant response rating, Crabgrass, Large: 95
[3]; 62 g ai/ha
  Plant response rating, Crabgrass, Large: 95
[3]; 125 g ai/ha
  Plant response rating, Crabgrass, Large: 95
[3]; 250 g ai/ha
  Plant response rating, Crabgrass, Large: 98
[4]; 31 g ai/ha
  Plant response rating, Foxtail, Giant: 90
[4]; 62 g ai/ha
  Plant response rating, Foxtail, Giant: 95
[4]; 125 g ai/ha
  Plant response rating, Foxtail, Giant: 95
[4]; 250 g ai/ha
  Plant response rating, Foxtail, Giant: 95
[5]; 31 g ai/ha
  Plant response rating, Morningglory: 0
[5]; 62 g ai/ha
  Plant response rating, Morningglory: 10
[5]; 125 g ai/ha
  Plant response rating, Morningglory: 10
[5]; 250 g ai/ha
  Plant response rating, Morningglory: 10
[6]; 31 g ai/ha
  Plant response rating, Nutsedge, Yellow: 0
[6]; 62 g ai/ha
  Plant response rating, Nutsedge, Yellow: 0
[6]; 125 g ai/ha
  Plant response rating, Nutsedge, Yellow: 0
[6]; 250 g ai/ha
  Plant response rating, Nutsedge, Yellow: 0
[7]; 31 g ai/ha
  Plant response rating, Oilseed Rape: 0
[7]; 62 g ai/ha
  Plant response rating, Oilseed Rape: 40
[7]; 125 g ai/ha
  Plant response rating, Oilseed Rape: 80
[7]; 250 g ai/ha
  Plant response rating, Oilseed Rape: 85
[8]; 62 g ai/ha
  Plant response rating, Soybean: 10
[8]; 125 g ai/ha
  Plant response rating, Soybean: 15
[8]; 250 g ai/ha
  Plant response rating, Soybean: 30
[9]; 62 g ai/ha
  Plant response rating, Velvetleaf: 35
[9]; 125 g ai/ha
  Plant response rating, Velvetleaf: 50
[9]; 250 g ai/ha
  Plant response rating, Velvetleaf: 80
[10]; 31 g ai/ha
  Plant response rating, Lambsquarters: 55
[10]; 62 g ai/ha
  Plant response rating, Lambsquarters: 75
[10]; 125 g ai/ha
  Plant response rating, Lambsquarters: 75
[10]; 250 g ai/ha
  Plant response rating, Lambsquarters: 85
[11]; 62 g ai/ha
  Plant response rating, Ryegrass, Italian: 30
[11]; 125 g ai/ha
  Plant response rating, Ryegrass, Italian: 30
[11]; 250 g ai/ha
  Plant response rating, Ryegrass, Italian: 45
[12]; 62 g ai/ha
  Plant response rating, Waterhemp: 80
[12]; 125 g ai/ha
  Plant response rating, Waterhemp: 85
[12]; 250 g ai/ha
  Plant response rating, Waterhemp: 90
[13]; 31 g ai/ha
  Plant response rating, Corn: 0
[13]; 62 g ai/ha
  Plant response rating, Corn: 40
[13]; 125 g ai/ha
  Plant response rating, Corn: 55
[13]; 250 g ai/ha
  Plant response rating, Corn: 70
[14]; 62 g ai/ha
  Plant response rating, Wheat: 20
[14]; 125 g ai/ha
  Plant response rating, Wheat: 35
[14]; 250 g ai/ha
  Plant response rating, Wheat: 70
[15]; 31 g ai/ha
  Plant response rating, Blackgrass: 10
[15]; 62 g ai/ha
  Plant response rating, Blackgrass: 55
[15]; 125 g ai/ha
  Plant response rating, Blackgrass: 70
[15]; 250 g ai/ha
  Plant response rating, Blackgrass: 90
[16]; 31 g ai/ha
  Plant response rating, Ragweed: 35
[16]; 62 g ai/ha
  Plant response rating, Ragweed: 35
[16]; 125 g ai/ha
  Plant response rating, Ragweed: 40
[16]; 250 g ai/ha
  Plant response rating, Ragweed: 65
